From patent US20240131007A1, “METHODS AND COMPOSITIONS FOR PICORNAVIRUS ANTI-VIRAL AGENTS” (University of Connecticut, priority 2022, published 2024)
Where two headings read alike, the source gives them in different places.

Legend:
[1] = molecular target: T1, EV-A71 Δ2C^116-329 (Human enterovirus 71, UniProt Q66478); assay: biochemical; format: biochemical
T1 construct: EV-A71 Δ2C (amino acids 116-329) was designed with; made in house; host or cells: E. coli Rosetta 2(DE3) pLysS, pMALc5x vector
T1 sequence (Q66478 1227-1440, stated change not applied): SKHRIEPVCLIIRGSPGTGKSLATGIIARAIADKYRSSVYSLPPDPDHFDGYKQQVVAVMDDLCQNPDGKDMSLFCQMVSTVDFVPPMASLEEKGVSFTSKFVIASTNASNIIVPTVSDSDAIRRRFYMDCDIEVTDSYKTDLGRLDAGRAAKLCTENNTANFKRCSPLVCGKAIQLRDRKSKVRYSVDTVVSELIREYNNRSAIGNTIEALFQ

[2] = system: EV-A71; assay: CPE inhibition assay (Cell Titer Glo) against EV-A71 in Vero cells; format: cell-based, Enterovirus A71; conditions: for IC50: Enterovirus A, EVA71, read-out: IC50; for IC50 / anti-viral activity of analogs of Compound T3 (luminescence above 3SD cutoff): EV-A71, Vero cells; for Selectivity Index: CC50/IC50; for anti-viral activity of analogs of Compound T3 (luminescence above 3SD cutoff): single concentration 25 μM
[3] = in vitro; conditions: African green monkey, CC50 (μM)
[4] = system: Vero cells; assay: Cytotoxicity assay (Cell Titer Glo); conditions: Table 10, Scaffold 1; Vero cells
[5] = Cytotoxicity assay (Cell Titer Glo); conditions: African green monkey, CC50 (μM), Vero cells

O=C(Nc1ccc2[nH]c(-c3ccc(Br)o3)nc2c1)c1ccc([N+](=O)[O-])cc1 [Compound 51, N-[2-(5-bromo-2-furyl)-1H-benzimidazol-5-yl]-4-nitrobenzamide]
IC50 [1]: 54.1 µM
IC50 ([2]; Table 12, Scaffold 3): 72.4 µM
Selectivity Index ([2]; Table 12, Scaffold 3): 1.74
CC50 at 3 days [3]: 126 µM

Cc1ccc2[nH]c(-c3ccc(NC(=O)c4ccc(Br)o4)cc3)nc2c1 [Compound 40, 5-bromo-N-[4-(5-methyl-1H-benzimidazol-2-yl)phenyl]-2-furamide]
IC50 [1]: 37.3 µM
IC50 ([2]; Table 10, Scaffold 1): 81.9 µM
Selectivity Index ([2]; Table 10, Scaffold 1): >4.89
CC50 at 3 days [3]: > 400 µM

O=C(Nc1ccc(-c2nc3ccccc3[nH]2)cc1)c1ccc(C(=O)Nc2ccc(-c3nc4ccccc4[nH]3)cc2)cc1 [Compound 28, N,N′-bis[4-(1H-benzimidazol-2-yl)phenyl]terephthalamide]
IC50 [1]: 0.55 µM
IC50 ([2]; Table 10, Scaffold 1): 41.7 µM
Selectivity Index ([2]; Table 10, Scaffold 1): >9.6
CC50 at 3 days [3]: > 400 µM

N-[4-(1H-benzimidazol-2-yl)phenyl]-2-(3-4-phenylthio)acetamide [Compound 22]
CC50 [4]: 761 µM

Cc1cccc(C(=O)Nc2ccc(-c3nc4ccccc4[nH]3)cc2)c1 [Compound 12, N-[4-(1H-benzimidazol-2-yl)phenyl]-3-methylbenzamide]
IC50 [1]: 652 µM
IC50 ([2]; Table 10, Scaffold 1): 13.2 µM
Selectivity Index ([2]; Table 10, Scaffold 1): 32.71
CC50 at 3 days [3]: 432 µM

Cc1ccc2[nH]c(-c3ccc(NC(=O)c4cccc(Br)c4)cc3)nc2c1 [Compound 44, 3-bromo-N-[4-(5-methyl-1H-benzimidazol-2-yl)phenyl]benzamide]
IC50 [1]: 19 µM
IC50 ([2]; Table 10, Scaffold 1): 10.5 µM
Selectivity Index ([2]; Table 10, Scaffold 1): 45.23
CC50 at 3 days [3]: 475 µM

O=C(Nc1ccc(-c2nc3ccccc3[nH]2)cc1)c1c(F)c(F)c(F)c(F)c1F [Compound 16, N-[4-(1H-benzimidazol-2-yl)phenyl]-2,3,4,5,6-pentafluorobenzamide]
IC50 ([2]; Table 10, Scaffold 1): > 25 µM
CC50 at 3 days ([5]; Table 10, Scaffold 1): > 400 µM

Cc1ccc(-c2nc3cc(NC(=O)c4cccs4)ccc3[nH]2)o1 [Compound 55, N-[2-(5-methyl-2-furyl)-1H-benzimidazol-5-yl]-2-thiophenecarboxamide]
IC50 ([2]; Table 12, Scaffold 3): > 25 µM
CC50 at 3 days ([5]; Table 12, Scaffold 3): > 400 µM

Cc1ccc2nc(-c3cccc(NC(=O)c4ccco4)c3)[nH]c2c1 [Compound 63, N-[3-(6-methyl-1H-benzimidazol-2-yl)phenyl]-2-furamide]
IC50 ([2]; Table 13, Scaffold 4): 24.8 µM
Selectivity Index ([2]; Table 13, Scaffold 4): 5.28
CC50 at 3 days ([5]; Table 13, Scaffold 4): 131 µM

O=C(C=Cc1ccco1)Nc1ccc(-c2nc3ccccc3[nH]2)cc1 [Compound 20, N-[4-(1H-benzimidazol-2-yl)phenyl]-3-(2-furyl)acrylamide]
IC50 [1]: 18.1 µM
IC50 ([2]; Table 10, Scaffold 1): 5.41 µM
Selectivity Index ([2]; Table 10, Scaffold 1): >73.94
CC50 at 3 days ([5]; Table 10, Scaffold 1): > 400 µM

CC(=O)Nc1ccc2[nH]c(-c3ccc(Br)o3)nc2c1 [Compound 52, N-[2-(5-bromo-2-furyl)-1H-benzimidazol-5-yl]acetamide]
IC50 ([2]; Table 12, Scaffold 3): 7.1 µM
Selectivity Index ([2]; Table 12, Scaffold 3): 1.30
CC50 at 3 days ([5]; Table 12, Scaffold 3): 9.2 µM

O=C(Nc1ccc2[nH]c(-c3ccco3)nc2c1)c1cccs1 [Compound 57, N-[2-(2-furyl)-1H-benzimidazol-5-yl]-2-thiophenecarboxamide]
IC50 ([2]; Table 8, virus-induced CPE): 2.75 µM
Selectivity Index ([2]; Table 8): 3.09
Selectivity Index ([2]; Table 12, Scaffold 3): 3.09
anti-viral activity of analogs of Compound T3 (luminescence above 3SD cutoff) [2]: have activity
CC50 at 3 days ([5]; Table 8): 8.5 µM
CC50 at 3 days ([5]; Table 12, Scaffold 3): 8.5 µM

Cc1ccc2[nH]c(-c3ccc(NC(=O)c4ccc(C)c(C)c4)cc3)nc2c1 [Compound 43, 3,4-dimethyl-N-[4-(5-methyl-1H-benzimidazol-2-yl)phenyl]benzamide]
IC50 [1]: 55 µM
IC50 ([2]; Table 8, virus-induced CPE): 4.27 µM
Selectivity Index ([2]; Table 8): 39.86
Selectivity Index ([2]; Table 10, Scaffold 1): 39.86
CC50 at 3 days [3]: 170 µM

O=C(Cc1cccs1)Nc1ccc(-c2nc3ccccc3[nH]2)cc1 [Compound 9, N-[4-(1H-benzimidazol-2-yl)phenyl]-2-(2-thienyl)acetamide]
IC50 ([2]; Table 10, Scaffold 1): 104 µM
Selectivity Index ([2]; Table 10, Scaffold 1): 3.26
CC50 at 3 days ([5]; Table 10, Scaffold 1): 338 µM

COc1ccc(C(=O)Nc2ccc(-c3nc4cc(C)ccc4[nH]3)cc2)cc1OC [Compound 37, 3,4-dimethoxy-N-[4-(5-methyl-1H-benzimidazol-2-yl)phenyl]benzamide]
IC50 [1]: 20.6 µM
IC50 ([2]; Table 10, Scaffold 1): 69.1 µM
Selectivity Index ([2]; Table 10, Scaffold 1): >5.79
CC50 at 3 days [3]: > 400 µM

Nc1ccc(-c2nc3ccc(Cl)cc3[nH]2)cc1 [Compound 61, 4-(6-chloro-1H-benzimidazol-2-yl)aniline]
IC50 ([2]; Table 13, Scaffold 4): 51.3 µM
Selectivity Index ([2]; Table 13, Scaffold 4): 2.46
CC50 at 3 days [3]: 126 µM

COc1ccccc1OCC(=O)Nc1ccc(-c2nc3cc(C)ccc3[nH]2)cc1 [Compound T1, 2-(2-methoxyphenoxy)-N-[4-(5-methyl-1H-benzimidazol-2-yl)phenyl]acetamide]
IC50 ([2]; Table 6): 5 µM
Selectivity Index ([2]; Table 6): 61.24
CC50 at 3 days [3]: 306 µM

Cc1ccc(-c2nc3ccccc3[nH]2)cc1NC(=O)c1ccco1 [Compound 60, N-[5-(1H-benzimidazol-2-yl)-2-methylphenyl]-2-furamide]
IC50 ([2]; Table 13, Scaffold 4): > 25 µM
CC50 at 3 days [3]: > 400 µM

O=C(Nc1ccc(-c2nc3ccccc3[nH]2)cc1)c1ccc(N2CCOCC2)c([N+](=O)[O-])c1 [Compound 18, N-[4-(1H-benzimidazol-2-yl)phenyl]-4-(4-morpholinyl)-3-nitrobenzamide]
IC50 ([2]; Table 10, Scaffold 1): > 25 µM
CC50 at 3 days [3]: 11.1 µM

O=C(CSc1ccc(Cl)cc1)Nc1ccc(-c2nc3ccccc3[nH]2)cc1 [Compound 25, N-[4-(1H-benzimidazol-2-yl)phenyl]-2-[(4-chlorophenyl)thio]acetamide]
IC50 ([2]; Table 10, Scaffold 1): > 25 µM
CC50 at 3 days ([5]; Table 10, Scaffold 1): 582 µM

O=C(Nc1cccc(-c2nc3ccccc3[nH]2)c1)c1ccco1 [Compound 62, N-[3-(1H-benzimidazol-2-yl)phenyl]-2-furamide]
IC50 ([2]; Table 13, Scaffold 4): 50.2 µM
Selectivity Index ([2]; Table 13, Scaffold 4): 1.62
CC50 at 3 days [3]: 81.5 µM

CC(=O)Nc1ccc(-c2nc3ccc(Cl)cc3[nH]2)cc1 [Compound 30, N-[4-(6-chloro-1H-benzimidazol-2-yl)phenyl]acetamide]
IC50 ([2]; Table 10, Scaffold 1): > 25 µM
CC50 at 3 days [3]: > 400 µM

O=C(Cc1ccccc1)Nc1ccc(-c2nc3ccccc3[nH]2)cc1 [Compound 7, N-[4-(1H-benzimidazol-2-yl)phenyl]-2-phenylacetamide]
IC50 ([2]; Table 10, Scaffold 1): > 25 µM
CC50 at 3 days [3]: > 400 µM

O=C(Nc1ccc(-c2nc3cc4ccccc4cc3[nH]2)cc1)c1cccc(Br)c1 [Compound 48, 3-bromo-N-[4-(1H-naphtho[2,3-d]imidazol-2-yl)phenyl]benzamide]
IC50 [1]: 33.1 µM
IC50 ([2]; Table 8, virus-induced CPE): 0.71 µM
Selectivity Index ([2]; Table 8): 426.06
Selectivity Index ([2]; Table 11, Scaffold 2): 426.06
CC50 at 3 days [3]: 302 µM

O=C(Nc1ccc2[nH]c(-c3cccs3)nc2c1)c1cccs1 [Compound 56, N-[2-(2-thienyl)-1H-benzimidazol-5-yl]-2-thiophenecarboxamide]
IC50 ([2]; Table 12, Scaffold 3): 20 µM
Selectivity Index ([2]; Table 12, Scaffold 3): 6.17
anti-viral activity of analogs of Compound T3 (luminescence above 3SD cutoff) [2]: have activity
CC50 at 3 days ([5]; Table 12, Scaffold 3): 123 µM

Cc1ccc(-c2nc3ccccc3[nH]2)cc1NC(=O)c1cc2ccccc2o1 [Compound 66, N-[5-(1H-benzimidazol-2-yl)-2-methylphenyl]-1-benzofuran-2-carboxamide]
IC50 ([2]; Table 13, Scaffold 4): 8.52 µM
Selectivity Index ([2]; Table 13, Scaffold 4): 11.11
CC50 at 3 days [3]: 94.7 µM

O=C(Nc1ccc(-c2nc3ccccc3[nH]2)cc1)c1ccccc1F [Compound 13, N-[4-(1H-benzimidazol-2-yl)phenyl]-2-fluorobenzamide]
IC50 ([2]; Table 10, Scaffold 1): > 25 µM
CC50 at 3 days [3]: 98.1 µM

CC(=O)Nc1ccc(-c2nc3cc(C)ccc3[nH]2)cc1 [Compound 29, N-[4-(5-methyl-1H-benzimidazol-2-yl)phenyl]acetamide]
IC50 ([2]; Table 10, Scaffold 1): 69.3 µM
Selectivity Index ([2]; Table 10, Scaffold 1): >5.77
CC50 at 3 days [3]: > 400 µM

O=C(Nc1ccc(-c2nc3ccccc3[nH]2)cc1)C1CC1 [Compound 2, N-[4-(1H-benzimidazol-2-yl)phenyl]cyclopropanecarboxamide]
IC50 ([2]; Table 10, Scaffold 1): 39.3 µM
Selectivity Index ([2]; Table 10, Scaffold 1): 3.77
CC50 at 3 days [3]: 148 µM

Cc1ccc2[nH]c(-c3ccc(NC(=O)Cc4cccs4)cc3)nc2c1 [Compound 35, N-[4-(5-methyl-1H-benzimidazol-2-yl)phenyl]-2-(2-thienyl)acetamide]
IC50 ([2]; Table 10, Scaffold 1): > 25 µM
CC50 at 3 days ([5]; Table 10, Scaffold 1): > 400 µM

O=C(c1ccccc1)c1ccc2[nH]c(-c3ccc(NC(=O)c4ccco4)cc3)nc2c1 [Compound 45, N-[4-(5-benzoyl-1H-benzimidazol-2-yl)phenyl]-2-furamide]
IC50 ([2]; Table 8, virus-induced CPE): 4.71 µM
Selectivity Index ([2]; Table 8): 12.56
Selectivity Index ([2]; Table 10, Scaffold 1): 12.56
CC50 at 3 days [3]: 59.1 µM

O=C(Nc1ccc(-c2nc3ccccc3o2)cc1)c1ccc(NC(=O)c2cc3ccccc3o2)cc1 [Compound 46, N-[4-({[4-(1,3-benzoxazol-2-yl)phenyl]amino}carbonyl)phenyl]-1-benzofuran-2-carboxamide]
IC50 [1]: 17.4 µM
IC50 ([2]; Table 10, Scaffold 1): 40 µM
Selectivity Index ([2]; Table 10, Scaffold 1): 34.49
CC50 at 3 days [3]: 1380 µM

Cc1ccc2[nH]c(-c3ccc(NC(=O)C4CC4)cc3)nc2c1 [Compound 31, N-[4-(5-methyl-1H-benzimidazol-2-yl)phenyl]cyclopropanecarboxamide]
IC50 ([2]; Table 10, Scaffold 1): 9.6 µM
Selectivity Index ([2]; Table 10, Scaffold 1): >41.67
CC50 at 3 days [3]: > 400 µM
